Experimental data taken from US11560400B2, “Salts of diphosphate phosphoramidate of nucleosides as anticancer compounds” (NuCana plc, priority 2017, dated 2023).
Counter-ions that a name gives are not always drawn. Like-named read-outs stand apart in the source and are kept apart here.

Experiments:
RL = experiment: CellTiterGlo cell viability assay, RL; type: cell-based; conditions: Homo sapiens, 72 h; for inhibition at 198 µM: percentage inhibition at the highest concentration tested, read-out: Top Inh
How it was run: (§1)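 Cells were treated in duplicate for 72 h under standard growth conditions with a 9-point, 3.16-fold compound series at final concentrations of 198 μM to 19.8 nM in 0.5% DMSO. Viability was measured by CellTiterGlo luminescence, and absolute EC50 and percent inhibition at the top concentration were derived.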

HT29 = experiment: CellTiterGlo cell viability assay, HT29; type: cell-based; conditions: Homo sapiens, HT-29, 72 h, HT29, 72 h; for EC50: read-out: Ab EC50; for inhibition at 198 µM: percentage inhibition at the highest concentration tested, read-out: Top Inhibit
How it was run: as §1

Mia-Pa-Ca-2 = experiment: CellTiterGlo cell viability assay, Mia-Pa-Ca-2; type: cell-based; conditions: Homo sapiens, MIA PaCa-2, Mia-Pa-Ca-2, 72 h
Procedure: A subset of compounds of the invention were assayed for their cytotoxic activity in an array of different solid tumours and haematological malignancies using the following assay.
In vitro viability assay were performed to assess the effects of compounds on cell viability in selected cell lines over 72 h using the CellTiterGlo (CTG, Promega-G7573) assay. The tests were performed in duplicates with treatment of compounds at 9 points, 3.16 folds titration in 96 well plates over ˜72 h. The compound starting concentrations were 198 μM. Cell viability assay using CellTiterGlo in 96-well plate were performed. Compound treatment 72 h, standard growth conditions, duplicates. Compounds were dissolved to 40 mM with thawed […]. Compounds were serially diluted at 3.16 fold in thawed DMSO, and warmed to 37° C. before being dissolved in media (2 μL+200 μL). After compounds were dissolved in media, media containing compounds were warmed to 37° C. in incubator and then compounds in media were added to cell plates (50 μL+50 μL) in duplicates. The compounds' final concentrations were from 198 μM to 19.8 nM. All compound solubilities were checked and recorded again, then the plates were transferred to CO2 tissue culture incubator immediately and incubated for 3 days. DMSO final concentration is 0.5%. The parent nucleoside in each case was tested as a comparator, as was an exemplary ProTide. The drugs of the ProTide class that were tested were as follows:
The following cell lines were tested and are referred to in the Table 1 below:
In Tables 2, 3 and 4, ‘Ab EC50’ refers to the absolute EC50 and ‘Top inhibit’ refers to the percentage inhibition achieved at the highest concentration tested.

HL-60 = experiment: CellTiterGlo cell viability assay, HL-60; type: cell-based; conditions: Homo sapiens, HL-60, 72 h; for EC50: read-out: Ab EC50; for inhibition at 198 µM: percentage inhibition at the highest concentration tested, read-out: Top Inh
How it was run: as §1

MOLT-4 = experiment: CellTiterGlo cell viability assay, MOLT-4; type: cell-based; conditions: Homo sapiens, MOLT-4, 72 h; for inhibition at 198 µM: percentage inhibition at the highest concentration tested, read-out: Top Inh; for EC50: read-out: Ab EC50
How it was run: as §1

K562 = experiment: CellTiterGlo cell viability assay, K562; type: cell-based; conditions: Homo sapiens; for inhibition at 198 µM: percentage inhibition at the highest concentration tested, read-out: Top Inh; for EC50: read-out: Ab EC50
How it was run: as §1

HepG2 = experiment: CellTiterGlo cell viability assay, HepG2; type: cell-based; conditions: Homo sapiens, HepG2, 72 h; for inhibition at 198 µM: percentage inhibition at the highest concentration tested, read-out: Top Inhibit
How it was run: as §1

KG-1 = experiment: CellTiterGlo cell viability assay, KG-1; type: cell-based; conditions: Homo sapiens, KG-1, 72 h; for EC50: Table 4 classes, read-out: Ab EC50; for inhibition at 198 µM: percentage inhibition at the highest concentration tested, read-out: Top Inhibit
How it was run: as §1

MCF-7 = experiment: CellTiterGlo cell viability assay, MCF-7; type: cell-based; conditions: Homo sapiens, MCF7, 72 h, MCF-7, 72 h, percentage inhibition at the highest concentration tested; read-out: Top Inhibit
How it was run: as §1

OVCAR 3 = experiment: CellTiterGlo cell viability assay, OVCAR 3; type: cell-based; conditions: Homo sapiens; for inhibition at 198 µM: OVCAR-3, 72 h, percentage inhibition at the highest concentration tested, read-out: Top Inhibit; for EC50: OVCAR 3, 72 h, Table 4 classes, read-out: Ab EC50
How it was run: as §1

CCRF-CEM = experiment: CellTiterGlo cell viability assay, CCRF-CEM; type: cell-based; conditions: Homo sapiens, 72 h; for EC50: Table 4 classes, read-out: Ab EC50; for inhibition at 198 µM: percentage inhibition at the highest concentration tested, read-out: Top Inh
How it was run: as §1

RPMI-8226 = experiment: CellTiterGlo cell viability assay, RPMI-8226; type: cell-based, Human; conditions: Homo sapiens, RPMI-8226, 72 h; for EC50: Table 4 classes, read-out: Ab EC50; for inhibition at 198 µM: percentage inhibition at the highest concentration tested, read-out: Top Inh
How it was run: as §1

[1] = K562, K 562, 72 h, Table 4 classes

SMILES | inhibition at 198 µM (RL) [%] | inhibition at 198 µM (HT29) [%] | inhibition at 198 µM (HL-60) [%] | inhibition at 198 µM (MOLT-4) [%] | inhibition at 198 µM (K562; K562, 72 h) [%] | inhibition at 198 µM (HepG2) [%] | EC50 (HT29; Table 4 classes) [µM] | EC50 (KG-1) [µM] | inhibition at 198 µM (KG-1) [%] | EC50 (HL-60; Table 4 classes) [µM] | inhibition at 198 µM (MCF-7) [%] | inhibition at 198 µM (OVCAR 3) [%] | EC50 (OVCAR 3) [µM] | EC50 (MOLT-4; Table 4 classes) [µM] | EC50 (CCRF-CEM) [µM] | inhibition at 198 µM (CCRF-CEM) [%] | EC50 (K562; [1]) [µM] | EC50 (RPMI-8226) [µM] | inhibition at 198 µM (RPMI-8226) [%] | other results
C[C@H](NP(=O)(Oc1ccccc1)OP(=O)(O)OC[C@@H]1C[C@H](O)[C@H](n2cnc3c(N)ncnc32)O1)C(=O)OCc1ccccc1 (stereo partly drawn) [Example 6, 3′-Deoxyadenosine-5′-O-[phenyl(benzoxy-L-alaninyl)] Diphosphate Triethylammonium Salt] | 72 | 82 | 80 | 95 | 81 | – | – | – | – | – | – | – | – | – | – | – | – | – | – | EC50 (RL; absolute EC50, numeric values, read-out: Ab EC50): 88.8 µM; EC50 (HT29; absolute EC50, numeric values): 24.3 µM; EC50 (Mia-Pa-Ca-2; absolute EC50, read-out: Ab EC50): 40.9 µM; inhibition at 198 µM (Mia-Pa-Ca-2; percentage inhibition at the highest concentration tested, read-out: Top Inhibit): 95.7%; EC50 (HL-60; absolute EC50, numeric values): 62.5 µM; EC50 (MOLT-4; absolute EC50, numeric values): 14.2 µM; EC50 (K562; K562, 72 h, absolute EC50, numeric values): 52.3 µM
Nc1nc(Cl)nc2c1ncn2[C@@H]1O[C@H](COP(=O)(O)OP(=O)(N[C@@H](Cc2ccccc2)C(=O)OCc2ccccc2)Oc2ccccc2)C(O)[C@H]1F (stereo partly drawn) [Example 22, 2-Chloro-9-(2′-Deoxy-2′-fluoro-β-D-arabinofuranosyl)adenine-5′-O-[l-phenyl(benzoxy-L-phenylalaninyl)] Diphosphate Triethylammonium Salt] | 42 | 69 | 95 | 89 | 62 | 47 | 0.2 to 1 | < 0.2 | 92 | < 0.2 | 50 | 73 | > 10 | < 0.2 | < 0.2 | 99 | > 10 | 1 to 5 | 86 | –
Nc1nc(Cl)nc2c1ncn2[C@@H]1O[C@H](COP(=O)(O)OP(=O)(Oc2ccccc2)N2CCCC2C(=O)OCc2ccccc2)[C@H](O)C1F (stereo partly drawn) [Example 23, 2-Chloro-9-(2′-Deoxy-2′-fluoro-β-D-arabinofuranosyl)adenine-5′-O-[1-phenyl(benzoxy-L-prolinyl)] Diphosphate Triethylammonium Salt] | 39 | 68 | 96 | 89 | 35 | 51 | 0.2 to 1 | < 0.2 | 93 | < 0.2 | 48 | 63 | > 10 | < 0.2 | < 0.2 | 99 | > 10 | > 10 | 85 | EC50 (HepG2; Table 4 classes, read-out: Ab EC50): 1 to 5 µM
